Test results taken from article PMC10714399, “Open Source Antibiotics: Simple Diarylimidazoles Are Potent against Methicillin-Resistant Staphylococcus aureus” (ACS Infectious Diseases, 2023).
Converted amounts (≈) assume the structure as drawn. “And” between values parts separate entries of the source, which are not always exact repeats. Identical values can stand only once. Like-named read-outs stand apart in the source and are kept apart here.

Tests used:
[1] = test system: Staphylococcus aureus NCTC 13373 (mecA-positive; methicillin-resistant); assay: In vitro antibacterial activity, MIC (UCL School of Pharmacy assay), MRSA; format: cell-based; conditions: for MIC: Staphylococcus aureus
Protocol: (§1) Staphylococcus aureus NCTC 13373 (mecA-positive; methicillin-resistant, NCTC 13373) was supplied by the National Collection of Type Cultures (NCTC), Public Health England, United Kingdom. Other organisms, S. aureus ATCC 25923 (methicillin-susceptible) and Enterococcus faecalis ATCC 51299 (vanA-positive; vancomycin-resistant), were obtained from the American Type Culture Collection (ATCC) via LGC Standards, UK. A suspension of each organism was prepared from an overnight plate culture (tryptone soya agar) in phosphate-buffered saline (PBS) and adjusted to an absorbance reading at 600 nm of 0.1, which is approximately equivalent to 1 × 10^8 colony-forming units (CFU) per mL. The cultures were further diluted 1:100 in isosensitest broth (Oxoid, United Kingdom) before 100 μL was used to inoculate each well of a 96-well plate that contained diluted samples of the OSA series. Compounds were evaluated over a 2-fold dilution range from 32 to 0.03 μg/mL. Stocks of the samples were prepared in 100% DMSO at […] before being diluted in isosenstitest broth. The highest concentration of DMSO present was 2%, which has been previously shown not to inhibit the growth of the microorganisms (data not shown). […] Vancomycin was used as a quality control compound.

[2] = test system: Enterococcus faecalis ATCC 51299 (vanA-positive; vancomycin-resistant); assay: In vitro antibacterial activity, MIC (UCL), VRE; format: cell-based
Protocol: as §1

[3] = test system: MRC-5SV2 (human lung fibroblast cell line); assay: Toxicity against MRC-5SV2; format: cell-based
Protocol: (§2) ADME and toxicity for compounds were measured according to procedures outlined in the manuscript submitted in parallel to this one;2 other procedures were used for those compounds analysed by Monash University (in vitro ADME) or UCL (toxicity), both described in the main

[4] = test system: PMM (primary mouse macrophages); assay: Toxicity against PMM; format: cell-based
Protocol: as §2

[5] = test system: S. aureus ATCC 25923 (methicillin-susceptible); assay: In vitro antibacterial activity, MIC (UCL), MSSA; format: cell-based, Staphylococcus aureus; conditions: for MIC: Staphylococcus aureus
Protocol: as §1

[6] = UCL assay, read-out: MRSA MIC (ug/mL) (UCL)
[7] = UCL assay, read-out: MSSA MIC (ug/mL) (UCL)

Row | Compound | MRSA MIC [1] | MRC5 TC50 [3] [µg/mL] | PMM TC50 [4] [µg/mL] | MIC [1, 6] [µg/mL] | MIC [5, 7] [µg/mL] | MRC5 TC50 ([3]; MRC5 cells) [µM] | PMM TC50 ([4]; PMM) [µM] | MSSA MIC [5] [µg/mL] | other results
1 | COc1ccn2c(Nc3ccccc3F)c(-c3cnn(C)c3)nc2c1 [compound 855] | > 32 µg/mL and 32 µg/mL | 21.6 | 21.6 | – | – | – | – | – | VRE MIC [2]: > 32 µg/mL
2 | Fc1ccc(-c2c(-c3ccccn3)nc3n2CCC3)cc1 [OSA_001053] | – | – | – | > 32 | > 32 | 7.55 | 32 | – | –
3 | CC(=O)N(c1ccc(F)cc1)c1c(-c2ccccn2)nc2ccccn12 [compound 1021] | 32 µg/mL | 22.2 | 22.2 | – | – | – | – | – | MIC ([1]; read-out: MRSA MIC): > 32 µg/mL; MIC ([5]; read-out: MSSA MIC): > 32 µg/mL
4 | CCCCN(Cc1c(-c2ccccc2)nc2ccc(C)cn12)c1cccc(C(F)(F)F)c1 [compound 1029] | 8 µg/mL | 0.5 | 3.5 | – | – | – | – | 8 | –
5 | Cc1ccc2nc(-c3ccccc3)c(CNc3ccc(F)cc3)n2c1 [OSA_001027] | – | – | – | > 32 | > 32 | 64 | 64 | – | –
6 | Cc1ccc2nc(-c3ccccc3)cn2c1 [compound 1026] | > 32 µg/mL and 32 µg/mL | 13.3 | 13.3 | – | – | – | – | > 32 | –
7 | Cc1ccn2c(CN(CC(C)C)c3cccc(C(F)(F)F)c3)c(-c3ccccn3)nc2c1 [OSA_001033] | – | – | – | > 32 | > 32 | 9.78 | 32 | – | –
8 | COc1cc(-c2c(-c3ccccn3)nc3n2CCC3)ccc1C#N [OSA_001076] | – | – | – | > 32 | > 32 | 27.86 | 64 | – | –
9 | c1ccc(-c2nc3n(c2-c2ccncc2)CCC3)nc1 [compound 1072] | > 32 µg/mL and 32 µg/mL | 16.8 | 16.8 | – | – | – | – | > 32 | –
10 | Cc1ccc2nc(-c3ccccc3)c(CNc3ccc(F)cc3)n2c1 [compound 1027] | > 32 µg/mL and 32 µg/mL | 21.2 | 21.2 | – | – | – | – | > 32 | –
11 | N#Cc1ccc(-c2c(-c3ccccn3)nc3n2CCC3)cc1C(F)(F)F [OSA_001077] | – | – | – | > 32 | > 32 | 64 | 64 | – | –
12 | Cc1ccc2nc(-c3ccccc3)c(CNc3cccc(C(F)(F)F)c3)n2c1 [OSA_001028] | – | – | – | > 32 | > 32 | 64 | 64 | – | –
13 | Nc1ccc(-c2c(-c3ccccn3)nc3n2CCC3)cc1 [OSA_001074] | – | – | – | > 32 | > 32 | 5.73 | 8 | – | –
14 | Cc1ccn2c(CNc3ccc(F)cc3)c(-c3ccccn3)nc2c1 [OSA_001031] | – | – | – | > 32 | > 32 | 64 | 64 | – | –
15 | FC(F)(F)c1ccc(-c2c(-c3ccccn3)nc3n2CCC3)cc1 [compound 1052] | – | 2.7 | 10.5 | – | – | – | – | – | MIC ([1]; read-out: MRSA MIC): 16 µg/mL (≈ 48.6 µM); MIC ([5]; read-out: MSSA MIC): 16 µg/mL (≈ 48.6 µM)
16 | Cc1ccc2nc(-c3ccccc3)cn2c1 [OSA_001026] | – | – | – | > 32 | > 32 | 64 | 64 | – | –
17 | Fc1cc(-c2c(-c3ccccn3)nc3n2CCC3)ccn1 [OSA_001073] | – | – | – | > 32 | > 32 | 30.55 | 32 | – | –
18 | Nc1ccc(-c2c(-c3ccccn3)nc3n2CCC3)cc1 [compound 1074] | > 32 µg/mL and 32 µg/mL | 1.6 | 2.2 | – | – | – | – | > 32 | –
19 | Cc1ccc2nc(-c3ccccc3)c(CNc3cccc(C(F)(F)F)c3)n2c1 [compound 1028] | > 32 µg/mL and 32 µg/mL | 24.4 | 24.4 | – | – | – | – | > 32 | –
20 | Clc1ccc(-c2c(-c3ccccn3)nc3n2CCC3)cc1 [compound 875] | – | 1.6 | 2.4 | – | – | – | – | – | MIC ([1]; read-out: MRSA MIC): 4 µg/mL (≈ 13.5 µM); MIC ([2]; read-out: VRE MIC): 16 µg/mL (≈ 54.1 µM)
21 | FC(F)(F)c1ccc(-c2c(-c3ccccn3)nc3n2CCC3)cc1 [OSA_001052] | – | – | – | 16 (≈ 48.6 µM) | 16 (≈ 48.6 µM) | 8.17 | 32 | – | –

Row | Compound | MRSA MIC [1] | MRC5 TC50 [3] [µg/mL] | PMM TC50 [4] [µg/mL] | MIC [1, 6] [µg/mL] | MIC [5, 7] [µg/mL] | MRC5 TC50 ([3]; MRC5 cells) [µM] | PMM TC50 ([4]; PMM) [µM] | MSSA MIC [5] [µg/mL] | other results
22 | Cc1ccn2cc(-c3ccccn3)nc2c1 [compound 1030] | > 32 µg/mL and 32 µg/mL | 4.6 | 13.4 | – | – | – | – | > 32 | –
23 | N#Cc1ccc(-c2c(-c3ccccn3)nc3n2CCC3)cn1 [OSA_001075] | – | – | – | > 32 | > 32 | 64 | 64 | – | –
24 | Fc1ccc(NCc2c(-c3ccccn3)nc3ccccn23)cc1 [compound 1019] | 32 µg/mL | 20.4 | 20.4 | – | – | – | – | – | MIC ([1]; read-out: MRSA MIC): > 32 µg/mL; MIC ([5]; read-out: MSSA MIC): > 32 µg/mL
25 | CCCCN(Cc1c(-c2ccccn2)nc2cc(C)ccn12)c1ccc(F)cc1 [OSA_001032] | – | – | – | 32 (≈ 82.4 µM) | 32 (≈ 82.4 µM) | 16 | 32 | – | –
26 | Fc1ccc(NCc2c(-c3ccccn3)nc3ccccn23)cc1 [OSA_001019] | – | – | – | > 32 | > 32 | 64 | 64 | – | –
27 | c1ccc(-c2nc3n(c2-c2ccncc2)CCC3)nc1 [OSA_001072] | – | – | – | > 32 | > 32 | 64 | 64 | – | –
28 | CS(=O)(=O)c1ccc2nc(-c3ccccn3)c(Nc3ccc(F)cc3)n2c1 [compound 1020] | > 32 µg/mL and 32 µg/mL | 24.5 | 12.2 | – | – | – | – | > 32 | –
29 | COc1ccn2c(-c3ccc(F)cc3)c(-c3ccccn3)nc2c1 [compound 858] | 16 µg/mL | 1.2 | 2.6 | – | – | – | – | – | VRE MIC [2]: > 32 µg/mL
30 | COc1cc(-c2c(-c3ccccn3)nc3n2CCC3)ccc1C#N [compound 1076] | > 32 µg/mL and 32 µg/mL | 8.8 | 20.2 | – | – | – | – | > 32 | –
31 | N#Cc1ccc(-c2c(-c3ccccn3)nc3n2CCC3)cc1C(F)(F)F [compound 1077] | > 32 µg/mL and 32 µg/mL | 22.7 | 22.7 | – | – | – | – | > 32 | –
32 | COc1ccn2c(-c3ccccc3)c(-c3ccccn3)nc2c1 [compound 860] | 8 µg/mL | 1.2 | 2.4 | – | – | – | – | – | VRE MIC [2]: 32 µg/mL
33 | Fc1cccc(-c2c(-c3ccccn3)nc3n2CCC3)c1 [compound 872] | 32 µg/mL | 2.0 | 15.3 | – | – | – | – | – | MIC ([1]; read-out: MRSA MIC): > 32 µg/mL; MIC ([2]; read-out: VRE MIC): > 32 µg/mL
34 | Fc1ccc(-c2c(-c3ccccn3)nc3n2CCC3)cc1 [compound 1053] | > 32 µg/mL and 32 µg/mL | 2.1 | 8.9 | – | – | – | – | > 32 | –
35 | Fc1cc(-c2c(-c3ccccn3)nc3n2CCC3)ccn1 [compound 1073] | > 32 µg/mL and 32 µg/mL | 8.6 | 9.0 | – | – | – | – | > 32 | –
36 | N#Cc1ccc(-c2c(-c3ccccn3)nc3n2CCC3)cn1 [compound 1075] | > 32 µg/mL and 32 µg/mL | 18.4 | 18.4 | – | – | – | – | > 32 | –
37 | COc1ccn2cc(-c3ccccn3)nc2c1 [compound 856] | > 32 µg/mL and 32 µg/mL | 11.6 | 14.4 | – | – | – | – | – | VRE MIC [2]: > 32 µg/mL
38 | Cc1ccn2c(CN(CC(C)C)c3cccc(C(F)(F)F)c3)c(-c3ccccn3)nc2c1 [compound 1033] | > 32 µg/mL and 32 µg/mL | 4.3 | 14.0 | – | – | – | – | > 32 | –
39 | COc1ccn2c(Nc3ccccc3F)c(-c3ccccn3)nc2c1 [OSA_000851] | – | – | – | – | – | – | – | – | MIC ([1]; UCL, read-out: MRSA MIC (UCL)): 8 µg/mL (≈ 23.9 µM); MIC ([5]; read-out: MSSA MIC (UCL)): 4 µg/mL (≈ 12 µM); MIC ([2]; read-out: VRE MIC (UCL)): 16 µg/mL (≈ 47.9 µM)
40 | Cc1ccn2cc(-c3ccccn3)nc2c1 [OSA_001030] | – | – | – | > 32 | > 32 | 22.11 | 64 | – | –
41 | CCCCN(Cc1c(-c2ccccc2)nc2ccc(C)cn12)c1cccc(C(F)(F)F)c1 [OSA_001029] | – | – | – | 8 (≈ 18.3 µM) | 8 (≈ 18.3 µM) | 1.19 | 8 | – | –
